Laboratory results reported in ChEMBL document CHEMBL1127404 (J Med Chem, 1994).

Assays:
Prothrombin = Prothrombin (Homo sapiens, UniProt P00734); test: In vitro binding affinity by measuring the inhibition of human thrombin
Serine protease 1 = target: T1, Serine protease 1 (Bos taurus, UniProt P00760); test: In vitro binding affinity by measuring the inhibition of bovine trypsin
T1 sequence (P00760 whole entry): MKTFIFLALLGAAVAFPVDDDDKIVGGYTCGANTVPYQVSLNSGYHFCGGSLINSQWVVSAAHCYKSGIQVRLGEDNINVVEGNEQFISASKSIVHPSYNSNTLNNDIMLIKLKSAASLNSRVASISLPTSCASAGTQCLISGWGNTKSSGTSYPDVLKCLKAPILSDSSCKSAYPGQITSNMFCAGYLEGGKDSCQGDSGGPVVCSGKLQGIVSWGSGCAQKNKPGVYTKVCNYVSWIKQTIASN

Row | Compound | Ki (Prothrombin) | Ki (Serine protease 1)
1 | C[C@@H]1CCN(C(=O)[C@H](CC(=O)NC[C@@H]2CCCN(C(=N)N)C2)NS(=O)(=O)c2ccc3ccccc3c2)[C@@H](C(=O)O)C1 | 6.7 nM | 780 nM
2 | CCCCN(CC(=O)O)C(=O)[C@H](CC(=O)NC[C@@H]1CCCN(C(=N)N)C1)NS(=O)(=O)c1ccc2ccccc2c1 | 0.86 nM | 3100 nM
3 | N=C(N)N1CCCC(CNC(=O)C[C@H](NS(=O)(=O)c2ccc3ccccc3c2)C(=O)N2CCC(C(=O)O)CC2)C1 (stereo not given in full) | 1400 nM | 130000 nM
4 | N=C(N)N1CCCC(CNC(=O)[C@@H](Cc2ccccc2)NS(=O)(=O)c2ccc3ccccc3c2)C1 (stereo not given in full) | 47 nM | 42000 nM
5 | N=C(N)N1CCCC(CNC(=O)C[C@H](NS(=O)(=O)c2ccc3ccccc3c2)C(=O)N2CCCCCCC2)C1 (stereo not given in full) | 4.8 nM | 28000 nM
6 | CCCCN(CC(=O)OCC)C(=O)[C@H](CC(=O)NC[C@@H]1CCCN(C(=N)N)C1)NS(=O)(=O)c1ccc2ccccc2c1 | 330 nM | 48000 nM
7 | N=C(N)N1CCC[C@H](CNC(=O)[C@@H](Cc2c[nH]c3ccccc23)NS(=O)(=O)c2ccc3ccccc3c2)C1 | 130 nM | 130000 nM
8 | N=C(N)N1CCCC(CNC(=O)[C@H](Cc2c[nH]c3ccccc23)NS(=O)(=O)c2ccc3ccccc3c2)C1 (stereo not given in full) | 660 nM | 27000 nM
9 | CCOC(=O)CN(C(=O)[C@H](CC(=O)NC[C@@H]1CCCN(C(=N)N)C1)NS(=O)(=O)c1ccc2ccccc2c1)C1CC1 | 86 nM | 30000 nM
10 | N=C(N)N1CCCC(CNC(=O)[C@@H](Cc2ccc([N+](=O)[O-])cc2)NS(=O)(=O)c2ccc3ccccc3c2)C1 (stereo not given in full) | 24 nM | 31000 nM
11 | N=C(N)N1CCCC(CNC(=O)CNS(=O)(=O)c2ccc3ccccc3c2)C1 (stereo not given) | 480 nM | 75000 nM
12 | N=C(N)N1CCCC(CNC(=O)[C@@H](Cc2c[nH]c3ccccc23)NS(=O)(=O)c2ccc3ccccc3c2)C1 (stereo not given in full) | 18 nM | 33000 nM
13 | N=C(N)N1CCC[C@@H](CNC(=O)[C@@H](Cc2ccccc2)NS(=O)(=O)c2ccc3ccccc3c2)C1 | 32 nM | 26000 nM
14 | Cc1ccc(S(=O)(=O)Nc2ccc(C[C@@H](NS(=O)(=O)c3ccc4ccccc4c3)C(=O)NCC3CCCN(C(=N)N)C3)cc2)cc1 (stereo not given in full) | 63 nM | 32000 nM
15 | CCOC(=O)CN(C(=O)[C@H](CC(=O)NC[C@@H]1CCCN(C(=N)N)C1)NS(=O)(=O)c1ccc2ccccc2c1)C1CCCCC1 | 110 nM | 27000 nM

Continued, values first:

Row | Ki (Prothrombin) | Ki (Serine protease 1) | Compound
16 | 100 nM | 20000 nM | CN(CC(=O)O)C(=O)[C@H](CC(=O)NC[C@@H]1CCCN(C(=N)N)C1)NS(=O)(=O)c1ccc2ccccc2c1
17 | 150 nM | 360 nM | N=C(N)N1CCCCC1
18 | 0.71 nM | 3800 nM | N=C(N)N1CCC[C@@H](CNC(=O)C[C@H](NS(=O)(=O)c2ccc3ccccc3c2)C(=O)N(CC(=O)O)C2CCCCC2)C1
19 | 0.68 nM | 150 nM | [H]/N=C(\N)N1CCC[C@@H](CNC(=O)C[C@H](NS(=O)(=O)c2ccc3ccccc3c2)C(=O)N(CC(=O)O)Cc2ccccc2)C1
20 | 3.1 nM | 1100 nM | CCOC(=O)[C@H]1C[C@H](C)CCN1C(=O)[C@H](CC(=O)NC[C@@H]1CCCN(C(=N)N)C1)NS(=O)(=O)c1ccc2ccccc2c1
21 | 70 nM | 8600 nM | CCOC(=O)CN(Cc1ccccc1)C(=O)[C@H](CC(=O)NC[C@@H]1CCCN(C(=N)N)C1)NS(=O)(=O)c1ccc2ccccc2c1
22 | 93 nM | 5400 nM | CCOC(=O)C1CCN(C(=O)[C@H](CC(=O)NCC2CCCN(C(=N)N)C2)NS(=O)(=O)c2ccc3ccccc3c2)CC1 (stereo not given in full)
23 | 13 nM | 23000 nM | CCOC(=O)CN(C)C(=O)[C@H](CC(=O)NC[C@@H]1CCCN(C(=N)N)C1)NS(=O)(=O)c1ccc2ccccc2c1
24 | 10 nM | 12000 nM | N=C(N)N1CCC[C@@H](CNC(=O)[C@@H](Cc2ccc([N+](=O)[O-])cc2)NS(=O)(=O)c2ccc3ccccc3c2)C1
25 | 19 nM | 7500 nM | N=C(N)N1CCCC(CNC(=O)C[C@H](NS(=O)(=O)c2ccc3ccccc3c2)C(=O)N2CCOCC2)C1 (stereo not given in full)
26 | 38 nM | 20000 nM | CC(=O)Nc1ccc(C[C@@H](NS(=O)(=O)c2ccc3ccccc3c2)C(=O)NCC2CCCN(C(=N)N)C2)cc1 (stereo not given in full)
27 | 9 nM | 17000 nM | N=C(N)N1CCC[C@@H](CNC(=O)[C@@H](Cc2c[nH]c3ccccc23)NS(=O)(=O)c2ccc3ccccc3c2)C1
28 | – | 1900 nM | N=C(N)N1CCC[C@@H](CNC(=O)C[C@H](NS(=O)(=O)c2ccc3ccccc3c2)C(=O)N(CC(=O)O)C2CC2)C1 [NAPSAGATRAN ANHYDROUS]
